In ChEMBL document CHEMBL5338783, “Discovery of an Anti-TNF-α 9-mer Peptide from a T7 Phage Display Library for the Treatment of Inflammatory Bowel Disease” (J Med Chem, 2023):
pKd: −log10 of the molar value. Calls of active or inactive are those of the source. The rule behind the calls is not given here. Peptide text beside a SMILES is read from it.

How the values were obtained:
[1] = molecular target: T1, Tumor necrosis factor receptor superfamily member 1A (Homo sapiens) (UniProt P19438); test: Inhibition of TNF-alpha (unknown origin) binding to TNFR1 by SPR analysis
T1 sequence (whole entry): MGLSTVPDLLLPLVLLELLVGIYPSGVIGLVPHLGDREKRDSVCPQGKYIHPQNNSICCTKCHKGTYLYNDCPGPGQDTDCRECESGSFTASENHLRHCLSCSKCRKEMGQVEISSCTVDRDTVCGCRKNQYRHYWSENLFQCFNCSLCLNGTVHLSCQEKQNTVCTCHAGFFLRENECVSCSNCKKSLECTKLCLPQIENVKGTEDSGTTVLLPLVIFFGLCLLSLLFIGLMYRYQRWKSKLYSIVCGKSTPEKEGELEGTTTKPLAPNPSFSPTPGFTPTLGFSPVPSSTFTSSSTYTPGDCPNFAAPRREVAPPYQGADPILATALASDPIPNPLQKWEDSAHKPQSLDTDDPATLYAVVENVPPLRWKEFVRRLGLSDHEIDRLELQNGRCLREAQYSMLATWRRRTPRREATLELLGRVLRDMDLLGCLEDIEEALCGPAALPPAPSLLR

[2] = system: RAW264.7; test: Antiinflammatory activity in mouse RAW264.7 cells assessed as decrease in LPS-stimulated IL-6 protein expression incubated for 3 hrs by flow cytometry; format: functional, cell-based; conditions: dose 25-100 µM
[3] = system: Mus musculus; test: Anti-colitis activity against DSS-induced acute colitis in C57BL/6 mouse model assessed as decrease in disease activity index at 0.5 to 1 mg/kg, ip daily for 11 days; format: functional, organism-based; conditions: dose 0.5-1 mg/kg, time 11.0 day
[4] = system: RAW264.7; test: Antiinflammatory activity in mouse RAW264.7 cells assessed as decrease in LPS-stimulated IL-1beta protein expression incubated for 3 hrs by flow cytometry; format: functional, cell-based; conditions: dose 25-100 µM
[5] = system: L929; test: Cytotoxicity against mouse L929 cells upto 1000 uM; format: toxicity, cell-based; conditions: l929, 1000 µM
[6] = system: Mus musculus; test: Anti-colitis activity against DSS-induced acute colitis in C57BL/6 mouse model assessed as increase in spleen index at 0.5 to 1 mg/kg, ip daily for 7 days; format: functional, organism-based; conditions: dose 0.5-1 mg/kg, time 7.0 day
[7] = system: Mus musculus; test: Anti-colitis activity against DSS-induced acute colitis in C57BL/6 mouse model assessed as […] in IL-1beta mRNA level at 0.5 to 1 mg/kg, ip daily for 7 days by RT-qPCR analysis; format: functional, organism-based; conditions: dose 0.5-1 mg/kg, time 7.0 day
[8] = system: Mus musculus; test: Anti-colitis activity against DSS-induced acute colitis in C57BL/6 mouse model assessed as protection of body weight loss at 0.5 to 1 mg/kg, ip daily for 7 days; format: functional, organism-based; conditions: dose 0.5-1 mg/kg, time 7.0 day
[9] = system: BMDM; test: Antiinflammatory activity in mouse BMDM cells assessed as decrease in LPS-stimulated IL-1beta mRNA level incubated for 3 hrs by RT-qPCR analysis; format: functional, cell-based; conditions: dose 25-100 µM
[10] = system: RAW264.7; test: Antiinflammatory activity in LPS-stimulated mouse RAW264.7 cells assessed as inhibition of p38 phosphorylation incubated for 3 hrs by Western blot analysis; format: functional, cell-based; conditions: dose 25-100 µM
[11] = system: Mus musculus; test: Anti-colitis activity against DSS-induced acute colitis in C57BL/6 mouse model assessed as reduction in granulocyte infiltration in colon at 0.5 to 1 mg/kg, ip daily for 11 days by H and E staining based analysis; format: functional, organism-based; conditions: dose 0.5-1 mg/kg, time 11.0 day
[12] = system: Mus musculus; test: Antiinflammatory activity against DSS-induced acute colitis in C57BL/6 mouse model assessed as decrease in ERK1/2 phosphorylation in colon tissue administered intraperitoneally daily for 7 days by Western blot analysis; format: functional, organism-based; conditions: dose 0.5-1 mg/kg, route ip, time 7.0 day
[13] = system: Mus musculus; test: Anti-colitis activity against DSS-induced acute colitis in C57BL/6 mouse model assessed as reduction in goblet cell depletion in colon at 0.5 to 1 mg/kg, ip daily for 11 days by H and E staining based analysis; format: functional, organism-based; conditions: dose 0.5-1 mg/kg, time 11.0 day
[14] = system: Mus musculus; test: Anti-colitis activity against DSS-induced acute colitis in C57BL/6 mouse model assessed as reduction in colon length at 0.5 to 1 mg/kg, ip daily for 7 days; format: functional, organism-based; conditions: dose 0.5-1 mg/kg, time 7.0 day
[15] = system: RAW264.7; test: Antiinflammatory activity in mouse RAW264.7 cells assessed as decrease in LPS-stimulated IL-6 mRNA level at 25 to 100 uM incubated for 3 hrs by RT-qPCR analysis; format: functional, cell-based; conditions: dose 25-100 µM
[16] = system: RAW264.7; test: Antiinflammatory activity in mouse RAW264.7 cells assessed as decrease in LPS-stimulated TNF-alpha mRNA level at 25 to 100 uM incubated for 3 hrs by RT-qPCR analysis; format: functional, cell-based; conditions: dose 25-100 µM
[17] = system: RAW264.7; test: Disruption of NF-kappaB/p65 nuclear import in LPS-stimulated mouse RAW264.7 cells preincubated for 30 mins followed by LPS stimulation measured after 3 hrs by immunofluorescence based microscopy; format: functional, cell-based
[18] = system: RAW264.7; test: Antiinflammatory activity in mouse RAW264.7 cells assessed as decrease in LPS-stimulated IFN-gamma mRNA level at 25 to 100 uM incubated for 3 hrs by RT-qPCR analysis; format: functional, cell-based; conditions: dose 25-100 µM
[19] = molecular target: Tumor necrosis factor (Homo sapiens, UniProt P01375); test: Binding affinity to TNF-alpha (unknown origin) assessed as dissociation constant by SPR analysis
[20] = system: RAW264.7; test: Antiinflammatory activity in LPS-stimulated mouse RAW264.7 cells assessed as inhibition of p65 phosphorylation incubated for 3 hrs by Western blot analysis; format: functional, cell-based; conditions: dose 25-100 µM
[21] = system: RAW264.7; test: Antiinflammatory activity in mouse RAW264.7 cells assessed as decrease in LPS-stimulated IFN-gamma protein expression incubated for 3 hrs by flow cytometry; format: functional, cell-based; conditions: dose 25-100 µM
[22] = system: Mus musculus; test: Anti-colitis activity against DSS-induced acute colitis in C57BL/6 mouse model assessed as […] in IL-6 mRNA level at 0.5 to 1 mg/kg, ip daily for 7 days by RT-qPCR analysis; format: functional, organism-based; conditions: dose 0.5-1 mg/kg, time 7.0 day
[23] = system: RAW264.7; test: Cytotoxicity against mouse RAW264.7 cells upto 1000 uM; format: toxicity, cell-based; conditions: raw264.7, 1000 µM
[24] = system: RAW264.7; test: Antiinflammatory activity in LPS-stimulated mouse RAW264.7 cells assessed as inhibition of ERK1/2 phosphorylation incubated for 3 hrs by Western blot analysis; format: functional, cell-based; conditions: dose 25-100 µM
[25] = system: Mus musculus; test: Anti-colitis activity against DSS-induced acute colitis in C57BL/6 mouse model assessed as increase in body weight value at 1 mg/kg, ip daily for 7 days; format: functional; conditions: time 7 day
[26] = system: Mus musculus; test: Anti-colitis activity against DSS-induced acute colitis in C57BL/6 mouse model assessed as reduction in colonic epithelial disruption at 0.5 to 1 mg/kg, ip daily for 11 days by H and E staining based analysis; format: functional, organism-based; conditions: dose 0.5-1 mg/kg, time 11.0 day
[27] = system: BMDM; test: Antiinflammatory activity in mouse BMDM cells assessed as decrease in LPS-stimulated IFN-alpha mRNA level incubated for 3 hrs by RT-qPCR analysis; format: functional, cell-based; conditions: dose 25-100 µM
[28] = system: RAW264.7; test: Antiinflammatory activity in LPS-stimulated mouse RAW264.7 cells assessed as inhibition of IkappaBalpha phosphorylation incubated for 3 hrs by Western blot analysis; format: functional, cell-based; conditions: dose 25-100 µM

Tumor necrosis factor, sequence (P01375 whole entry): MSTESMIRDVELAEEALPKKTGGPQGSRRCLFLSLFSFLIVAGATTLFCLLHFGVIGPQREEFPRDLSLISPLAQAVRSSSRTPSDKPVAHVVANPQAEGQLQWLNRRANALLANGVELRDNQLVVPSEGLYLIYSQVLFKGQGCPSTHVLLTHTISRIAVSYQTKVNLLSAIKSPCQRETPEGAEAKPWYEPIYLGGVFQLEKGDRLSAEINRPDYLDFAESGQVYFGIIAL

With `C[C@H](N)C(=O)N[C@@H](CS)C(=O)N[C@@H](Cc1cnc[nH]1)C(=O)N[C@@H](C)C(=O)N[C@@H](Cc1c[nH]c2ccccc12)C(=O)N[C@@H](C)C(=O)N1CCC[C@H]1C(=O)N[C@H](C(=O)N[C@@H](CCCNC(=N)N)C(=O)O)[C@@H](C)O` (H-ACHAWAPTR-OH) the inhibition [1] was “Active”, the Activity [2] was “Dose-Dependent Effect” and the Activity [3] was “Active”. The Activity [4] was “Dose-Dependent Effect”, the Activity [5] was “Non-Toxic” and the Activity [6] was “Active”. For the same compound, the Activity [7] was “Active”, the Activity [8] was “Active” and the Activity [9] was “Dose-Dependent Effect”. The Activity [10] was “Dose-Dependent Effect”, the Activity [11] was “Active” and the Activity [12] was “Dose-Dependent Effect”. The Activity [13] was “Active”, the Activity [14] was “Active” and the Activity [15] was “Dose-Dependent Effect”. The Activity [16] was “Dose-Dependent Effect”, the Activity [17] was “Dose-Dependent Effect” and the Activity [18] was “Dose-Dependent Effect”. The pKd [19] was 5.22, the Activity [20] was “Dose-Dependent Effect” and the Activity [21] was “Dose-Dependent Effect”. The Activity [22] was “Active”, the Activity [23] was “Non-Toxic” and the Activity [24] was “Dose-Dependent Effect”. The Activity [25] was 0.24, the Activity [26] was “Active” and the Activity [27] was “Dose-Dependent Effect”. For the same compound, the Activity [28] was “Dose-Dependent Effect”.
